{"source": "patent US10383835B2", "about": "“Treatment of inflammatory disorders in non-human mammals” (The Regents of the University of California, priority 2012, dated 2019)", "key": {"[1]": {"target": "sEH (Homo sapiens (Human), UniProt P34913)", "sequence (P34913 whole entry)": "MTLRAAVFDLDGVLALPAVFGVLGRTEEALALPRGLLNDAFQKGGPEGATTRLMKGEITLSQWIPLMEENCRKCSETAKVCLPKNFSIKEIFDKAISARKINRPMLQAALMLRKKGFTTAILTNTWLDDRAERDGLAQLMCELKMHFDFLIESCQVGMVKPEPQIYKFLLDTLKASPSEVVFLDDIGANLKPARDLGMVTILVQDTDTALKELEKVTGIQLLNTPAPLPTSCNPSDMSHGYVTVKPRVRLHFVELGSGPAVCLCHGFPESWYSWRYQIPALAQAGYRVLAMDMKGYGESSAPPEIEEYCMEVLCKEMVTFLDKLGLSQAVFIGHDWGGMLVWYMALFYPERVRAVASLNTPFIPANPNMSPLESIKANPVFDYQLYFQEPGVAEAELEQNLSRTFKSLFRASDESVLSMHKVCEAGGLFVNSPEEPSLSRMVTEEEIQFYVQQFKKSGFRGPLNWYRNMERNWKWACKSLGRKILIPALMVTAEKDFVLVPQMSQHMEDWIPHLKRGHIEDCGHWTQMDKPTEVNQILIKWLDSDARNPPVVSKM", "assay": "Activity as inhibitor of sEH (standard assays)", "type": "biochemical", "source_text": "Derivatives of urea are transition state mimetics that form a preferred group of sEH inhibitors. […] Any particular urea derivative or other compound can be easily tested for its ability to inhibit sEH by standard assays, such as those discussed herein. The production and testing of urea and carbamate derivatives as sEH inhibitors is set forth in detail in, for example, Morisseau et al., Proc Natl Acad Sci (USA) 96:8849-8854 (1999).\nOne category of these inhibitors comprises inhibitors that mimic the substrate for the enzyme. The lipid alkoxides (e.g., the 9-methoxide of stearic acid) are an exemplar of this group of inhibitors."}, "[2]": {"tested_on": "COX-2 / COX-1", "settings": "cited from earlier work"}, "[3]": {"set-up": "species or system horse", "settings": "in vivo"}, "[4]": {"assay": "in vivo", "settings": "Thoroughbred, horse, iv, 0.1 mg/kg"}, "[5]": {"target": "Canine sEH (Canis lupus familiaris, UniProt A0A8I3NJL8)", "sequence (A0A8I3NJL8 1-556)": "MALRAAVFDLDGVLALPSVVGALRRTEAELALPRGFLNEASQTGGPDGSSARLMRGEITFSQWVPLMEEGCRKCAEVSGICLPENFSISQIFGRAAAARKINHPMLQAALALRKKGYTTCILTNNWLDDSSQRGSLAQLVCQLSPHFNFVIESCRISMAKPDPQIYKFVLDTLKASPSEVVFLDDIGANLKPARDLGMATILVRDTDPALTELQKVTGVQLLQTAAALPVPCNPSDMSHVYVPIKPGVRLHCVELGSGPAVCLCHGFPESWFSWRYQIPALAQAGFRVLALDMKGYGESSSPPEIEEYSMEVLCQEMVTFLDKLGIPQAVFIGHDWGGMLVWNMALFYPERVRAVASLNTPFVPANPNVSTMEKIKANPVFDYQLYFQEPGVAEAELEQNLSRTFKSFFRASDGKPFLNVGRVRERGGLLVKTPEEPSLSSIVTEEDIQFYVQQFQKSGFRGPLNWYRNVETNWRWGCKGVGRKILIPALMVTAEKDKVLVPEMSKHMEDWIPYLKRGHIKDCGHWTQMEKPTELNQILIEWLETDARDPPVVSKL", "assay": "sEH Inhibitor Screen of Canine sEH", "type": "biochemical", "settings": "[I] = 100 nM"}, "[6]": {"tested_on": "horse with pain due to laminitis", "assay": "Pain (VAS) and blood pressure in one horse with naturally occurring laminitis, multimodal analgesic therapy", "type": "in vivo", "settings": "before t-TUCB; phenylbutazone 4 mg/kg twice daily PO, gabapentin 20 mg/kg twice daily PO"}, "[7]": {"settings": "human volunteers; cited from earlier work"}, "[8]": {"assay": "Plasma concentrations and pharmacokinetics in the laminitic horse", "settings": "gabapentin 20 mg/kg BID PO"}, "[9]": {"target": "COX-2 (Equus caballus (Horse), UniProt O19183)", "sequence (O19183 18-604)": "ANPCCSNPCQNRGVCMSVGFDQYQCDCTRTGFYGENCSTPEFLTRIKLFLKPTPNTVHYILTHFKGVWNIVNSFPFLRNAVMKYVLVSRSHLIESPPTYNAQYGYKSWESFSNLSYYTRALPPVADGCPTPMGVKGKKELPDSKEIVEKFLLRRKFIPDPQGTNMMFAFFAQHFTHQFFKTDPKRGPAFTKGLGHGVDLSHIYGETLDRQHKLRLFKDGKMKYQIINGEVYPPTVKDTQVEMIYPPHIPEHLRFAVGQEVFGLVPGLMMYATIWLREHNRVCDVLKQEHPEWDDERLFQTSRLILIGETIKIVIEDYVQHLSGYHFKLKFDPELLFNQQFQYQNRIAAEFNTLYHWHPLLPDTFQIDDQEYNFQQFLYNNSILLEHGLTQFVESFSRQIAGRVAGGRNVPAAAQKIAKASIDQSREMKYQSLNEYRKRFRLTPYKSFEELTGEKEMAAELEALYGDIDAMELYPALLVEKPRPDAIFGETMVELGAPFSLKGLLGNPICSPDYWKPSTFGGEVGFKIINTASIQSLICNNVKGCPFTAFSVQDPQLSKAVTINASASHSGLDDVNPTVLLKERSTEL", "settings": "read-out: 80% maximal inhibitory concentration (IC80) against COX-2; cited from earlier work"}}}
{"smiles": "CCCCCCCCCCCCNC(=O)NC12CC3CC(CC(C3)C1)C2", "note": "[ADU, N-Adamantyl-N′-dodecyl urea]", "values": [{"measurement": "activity as an inhibitor of sEH", "setting": "[1]", "value": "particularly high activity on sEH"}]}
{"smiles": "CC(=O)Oc1ccccc1C(=O)O", "note": "[Aspirin]", "values": [{"measurement": "COX-2 (IC50)/COX-1 (IC50) ratio", "setting": "[2]", "value": 0.32}]}
{"smiles": "O=C(Nc1ccc(OC(F)(F)F)cc1)N[C@H]1CC[C@H](Oc2ccc(C(=O)O)cc2)CC1", "note": "[compound 1728, trans-4-{4-[3-(4-Trifluoromethoxy-phenyl)-ureido]-cyclohexyloxy}-benzoic acid]", "values": [{"measurement": "Anisocytosis", "setting": "[3]", "value": "Slight"}, {"measurement": "Bilirubin Direct", "setting": "[3]", "value": 0.1, "unit": "mg/dL"}, {"measurement": "Creatinine", "setting": "[3]", "value": 1.1, "unit": "mg/dL"}, {"measurement": "Echinocytes", "setting": "[3]", "value": "Few"}, {"measurement": "GGT", "setting": "[3]", "value": 11, "unit": "IU L^−1"}, {"measurement": "SDH-37", "setting": "[3]", "value": 0, "unit": "IU L^−1"}, {"measurement": "half-life", "setting": "[4]", "value": 29.8, "unit": "h"}]}
{"smiles": "O=C(O)CNC(=O)c1ccc(O[C@H]2CC[C@H](NC(=O)Nc3ccc(OC(F)(F)F)cc3)CC2)cc1", "note": "[compound 2283, trans-2-(4-(4-(3-(4-trifluoromethoxy-phenyl)-ureido)-cyclohexyloxy)-benzamido)-acetic acid]", "values": [{"measurement": "inhibition at 0.1 µM", "setting": "[5]", "value": 64, "unit": "%"}]}
{"smiles": "CS(=O)(=O)NC(=O)c1ccc(O[C@H]2CC[C@H](NC(=O)Nc3ccc(OC(F)(F)F)cc3)CC2)cc1", "note": "[compound 2728, N-(methylsulfonyl)-4-(trans-4-(3-(4-trifluoromethoxy-phenyl)-ureido)-cyclohexyloxy)-benzamide]", "values": [{"measurement": "inhibition at 0.1 µM", "setting": "[5]", "value": 84, "unit": "%"}]}
{"smiles": "O=C(Nc1ccccc1F)N[C@H]1CC[C@H](Oc2ccc(C(=O)O)cc2)CC1", "note": "[compound 2736, 4-(trans-4-(3-(2-fluorophenyl)-ureido)-cyclohexyloxy)-benzoic acid]", "values": [{"measurement": "inhibition at 0.1 µM", "setting": "[5]", "value": 80, "unit": "%"}]}
{"smiles": "O=C(Nc1ccc(OC(F)(F)F)cc1)N[C@H]1CC[C@H](Oc2ccc(C(=O)NO)cc2)CC1", "note": "[compound 2761, N-hydroxy-4-(trans-4-(3-(4-(trifluoromethoxy)-phenyl)-ureido)-cyclohexyloxy)-benzamide]", "values": [{"measurement": "inhibition at 0.1 µM", "setting": "[5]", "value": 72, "unit": "%"}]}
{"smiles": "Cc1oc(=O)oc1COC(=O)c1ccc(O[C@H]2CC[C@H](NC(=O)Nc3ccc(OC(F)(F)F)cc3)CC2)cc1", "note": "[compound 2796, (5-methyl-2-oxo-1,3-dioxol-4-yl)methyl 4-((1r,4r)-4-(3-(4-(trifluoromethoxy)-phenyl)-ureido)-cyclohexyloxy)-benzoate]", "values": [{"measurement": "inhibition at 0.1 µM", "setting": "[5]", "value": 84, "unit": "%"}]}
{"smiles": "O=C(Nc1ccc(Oc2ccc(C(=O)O)cc2)cc1)Nc1ccc(OC(F)(F)F)cc1", "note": "[compound 2803, 4-(4-(3-(4-(trifluoromethoxy)-phenyl)-ureido)-phenoxy)-benzoic acid]", "values": [{"measurement": "inhibition at 0.1 µM", "setting": "[5]", "value": 82, "unit": "%"}]}
{"smiles": "COC(=O)c1ccc(NC2CCC(NC(=O)Nc3ccc(OC(F)(F)F)cc3)CC2)cc1", "note": "(stereo not shown) [compound 2804, methyl 4-(4-(3-(4-(trifluoromethoxy)-phenyl)-ureido)-cyclohexylamino)-benzoate]", "values": [{"measurement": "inhibition at 0.1 µM", "setting": "[5]", "value": 49, "unit": "%"}]}
{"smiles": "O=C(Nc1ccc(OC(F)F)cc1)N[C@H]1CC[C@H](Oc2ccc(C(=O)O)cc2)CC1", "note": "[compound 2805, 4-(trans-4-(3-(4-(difluoromethoxy)-phenyl)-ureido)-cyclohexyloxy)-benzoic acid]", "values": [{"measurement": "inhibition at 0.1 µM", "setting": "[5]", "value": 95, "unit": "%"}]}
{"smiles": "O=C(Nc1ccc(OC(F)(F)F)cc1)N[C@H]1CC[C@H](Oc2ccc(-c3nnn[nH]3)cc2)CC1", "note": "[compound 2806, 1-(trans-4-(4-(1H-tetrazol-5-yl)-phenoxy)-cyclohexyl)-3-(4-(trifluoromethoxy)-phenyl)-urea]", "values": [{"measurement": "inhibition at 0.1 µM", "setting": "[5]", "value": 99, "unit": "%"}]}
{"smiles": "O=C(Nc1ccc(OC(F)(F)F)cc1)Nc1ccc(Oc2ccc(C(=O)O)cc2)cc1F", "note": "[compound 2807, 4-(3-fluoro-4-(3-(4-(trifluoromethoxy)-phenyl)-ureido)-phenoxy)-benzoic acid]", "values": [{"measurement": "inhibition at 0.1 µM", "setting": "[5]", "value": 95, "unit": "%"}]}
{"smiles": "O=C1CCC(NC(=O)Nc2ccc(OC(F)(F)F)cc2)CC1", "note": "[compound 2809, 1-(4-oxocyclohexyl)-3-(4-(trifluoromethoxy)-phenyl)-urea]", "values": [{"measurement": "inhibition at 0.1 µM", "setting": "[5]", "value": 51, "unit": "%"}]}
{"smiles": "O=C(Nc1ccc(OC(F)(F)F)cc1)NC1CCC(Oc2ncccn2)CC1", "note": "(stereo not shown) [compound 2810, 1-(4-(pyrimidin-2-yloxy)-cyclohexyl)-3-(4-(trifluoromethoxy)-phenyl)-urea]", "values": [{"measurement": "inhibition at 0.1 µM", "setting": "[5]", "value": 52, "unit": "%"}]}
{"smiles": "NCC1(CC(=O)O)CCCCC1", "note": "[gabapentin]", "values": [{"measurement": "response of laminitis pain to therapy", "setting": "[6]", "value": "refractory"}, {"measurement": "plasma concentration associated with analgesia", "setting": "[7]", "value": "~18", "unit": "µM"}, {"measurement": "lowest measured plasma concentration", "setting": "[8]", "value": 1, "unit": "µM"}, {"measurement": "highest measured plasma concentration", "setting": "[8]; first sampling five hours after dosing", "value": 18, "unit": "µM"}]}
{"smiles": "COc1ccc2c(c1)c(CC(=O)O)c(C)n2C(=O)c1ccc(Cl)cc1", "note": "[indomethacin]", "values": [{"measurement": "COX-2 (IC50)/COX-1 (IC50) ratio", "setting": "[2]", "value": 33}]}
{"smiles": "CCCCC1C(=O)N(c2ccccc2)N(c2ccccc2)C1=O", "note": "[phenylbutazone]", "values": [{"measurement": "response of laminitis pain to therapy", "setting": "[6]", "value": "refractory"}, {"measurement": "IC80", "setting": "[9]", "value": "~23", "unit": "µM"}]}
